The values that follow are results of earlier work, collected in patent US20150045422A1 (priority 2005, published 2015).

Series [1] relates to Herpes Simplex Virus Type 2 (HSV2).

In the case of `CC1=C[C@H]2O[C@@H]3[C@H](O)C[C@](C)([C@@]2(CO)[C@H](O)C1=O)[C@]31CO1` [DON, Deoxynivalenol], the “PSR Potency in Human Cells (IC50) HEK” value with HEK (kidney) is 3 µg/mL. Besides, the “PSR Potency in Human Cells (IC50) HeLa” value in the series with HeLa (uterine) is 1 µg/mL. The “PSR Potency in Human Cells (IC50) HEp2” value in the series on HEp2 (epidermoid) was 0.25 µg/mL. Further, the “PSR Potency in Human Cells (IC50) HL” value with HL (lymphocyte) was 0.5 µg/mL. Further, in series [1], the “PSR Potency in Human Cells (IC50) HSV2” value is 0.094 µg/mL.

With `CC(=O)O[C@@H]1[C@@H](O)[C@H]2O[C@@H]3C=C(C)C(=O)[C@@H](O)[C@]3(CO)[C@]1(C)[C@]21CO1` [FusX, Fusarenon-X], the “PSR Potency in Human Cells (IC50) HEK” value in the series on HEK (kidney) is 1 µg/mL. The “PSR Potency in Human Cells (IC50) HeLa” value in the series on HeLa (uterine) is 0.1 µg/mL. Further, in the series on HL (lymphocyte), the “PSR Potency in Human Cells (IC50) HL” value is 0.3 µg/mL. In addition, the “PSR Potency in Human Cells (IC50) HSV2” value in series [1] was 0.026 µg/mL.

For `CC(=O)OC[C@]12C[C@H](O)C(C)=C[C@H]1O[C@@H]1[C@H](O)[C@@H](OC(C)=O)[C@@]2(C)[C@]12CO2` [NEOS, neosolaniol], the “PSR Potency in Human Cells (IC50) HEK” value in the series on HEK (kidney) is 0.06 µg/mL. Moreover, in the series on HeLa (uterine), the “PSR Potency in Human Cells (IC50) HeLa” value was 0.1 µg/mL. The “PSR Potency in Human Cells (IC50) HL” value with HL (lymphocyte) was 0.05 µg/mL. The “concentrations that did not decrease cell viability” value in the series with HEp-2 cells is given as “below 200 ng/ml”. In addition, in series [1], the “PSR Potency in Human Cells (IC50) HSV2” value was 0.052 µg/mL.

In the case of `CC1=C[C@H]2O[C@@H]3[C@H](O)[C@@H](O)[C@](C)([C@@]2(CO)[C@H](O)C1=O)[C@]31CO1` [NIV, Nivalenol], the “PSR Potency in Human Cells (IC50) HEK” value in the series on HEK (kidney) was 1 µg/mL. Besides, in the series with HeLa (uterine), the “PSR Potency in Human Cells (IC50) HeLa” value was 0.3 µg/mL. Besides, in the series with HEp2 (epidermoid), the “PSR Potency in Human Cells (IC50) HEp2” value is 0.225 µg/mL. For the same molecule, in the series with HL (lymphocyte), the “PSR Potency in Human Cells (IC50) HL” value was 0.3 µg/mL. The “PSR Potency in Human Cells (IC50) HSV2” value in series [1] was 0.05 µg/mL.

As for Crotocin, the “PSR Potency in Human Cells (IC50) HEK” value in the series on HEK (kidney) was 0.6 µg/mL. Besides, in the series on HeLa (uterine), the “PSR Potency in Human Cells (IC50) HeLa” value is 0.5 µg/mL. Moreover, the “PSR Potency in Human Cells (IC50) HEp2” value in the series on HEp2 (epidermoid) was 0.25 µg/mL. Also, in the series with HL (lymphocyte), the “PSR Potency in Human Cells (IC50) HL” value was 2 µg/mL.
